Measured values published in PubChem BioAssay AID2060897 (Molecular Pharmacology Branch, DTP, NCI, 2025).

System: 966289-007-R4-J1-PDC complex spheroid viability
Experiment: Anticancer human tumor 966289-007-R4-J1-PDC patient-derived pancreatic adenocarcinoma cell line growth inhibition [RAS]
Details: for IC50: curve of first compound; for viability, T/C: stronger effect = lower value
Excerpt: RAS pathway inhibitors in Combinations in Complex Spheroids
A high-throughput screen of multi-cell type tumor spheroids was designed to identify active combinations of RAS pathway inhibitors and targeted small molecules. Complex spheroids include a stromal component modeled by human endothelial cells (HUVEC) and fibroblasts modeled by human mesenchymal stem cells (MSCs). The concentration ranges selected for each drug and investigational agent were based upon clinically achievable concentrations if the clinical Cmax of the agent was known.
Compounds. The drugs and investigational agents: abemaciclib (NSC768073), cobimetinib (NSC768068), divarasib (GDC6063, NSC841802), docetaxel (NSC628503), GDC-1971 (RLY-1971, NSC841576), gemcitabine (NSC613327), inavolisib (NSC800729), ipatasertib (NSC767898), KB-0742 (NSC834161), MRTX-1133 (NSC836407), osimertinib (NSC779217), RMC-4630 (NSC839698), RMC-6236 (NSC851965), RMC-6291 (NSC852671), Ro-3306 (NSC812927), sapanisertib (NSC764658), SN-38 (NSC673596), staurosporine (NSC755774), SY5609 (NSC837396), and tovorafenib (DAY101, NSC766906), were obtained from the National Cancer Institute (NCI) Developmental Therapeutics Program Chemical Repository. The FDA-approved anticancer drug set is available from the NCI Developmental Therapeutics Program. […] The stock solutions were prepared in dimethyl sulfoxide (DMSO, Sigma-Aldrich, St. Louis, MO, cat. D2650) at 800-fold the tested concentration and stored at -70 degrees C prior to their use. All drugs and investigational agents were tested over a range starting from a high concentration at or near the clinical Cmax and decreasing in half-log increments. If the clinical Cmax for an agent had not been determined, the highest concentration tested was 10 microM.
Cell Culture. All cells were maintained in an incubator at 37 degrees C and 5% CO2 with 95% humidity. The PDC lines were cultured according to standard operating procedures established by the NCI PDMR. All PDCs were thawed and cultured in Matrigel-coated flasks prepared with a working solution of 1X Ham's F-12 nutrient mix, without supplementation (Invitrogen, Waltham, MA, cat. 11765054), 100 U/mL penicillin-streptomycin (Invitrogen, cat. 15140122), and 2.5% Matrigel (Corning Inc., Corning, NY, cat. 354248) for the first three passages. The 362531-283-R-J2-PDC and 782815-120-R-J1-PDC lines were cultured in 6C/Colon 1B media, which includes advanced DMEM/F-12 (Thermo Fisher Scientific, cat. 12634028), 10 mM HEPES (Thermo Fisher Scientific, cat. 15630080), 1X GlutaMAX supplement (Thermo Fisher Scientific, cat. 35050061), 0.1 mg/mL primocin (InvivoGen, San Diego, CA, cat. ant-pm-2), 10% defined fetal bovine serum, heat inactivated (HyClone Laboratories Inc., Logan, UT, cat. SH30070.03HI), 50% L-WRN conditioned media (ATCC, cat. CRL-3276), 1.25 mM N-Acetyl-L-cysteine (Sigma-Aldrich, cat. A9165), 10 mM nicotinamide (Sigma-Aldrich, cat. N0636), 1X B-27 supplement (Thermo Fisher Scientific, cat. 17504044), 1X N-2 supplement (Thermo Fisher Scientific, cat. 17502048), 50 ng/mL human EGF (Thermo Fisher Scientific, cat. PHG0311), and 10 microM Y-27632 dihydrochloride (Tocris Bioscience, cat. 1254). The K12877-001-R-J1-PDC line was cultured in 6I media, which includes all 6C/Colon 1B media plus 10 ng/mL human FGF-10 (PeproTech, cat. 100-26), 1 ng/mL human FGF-2 (PeproTech, cat. 100-18B), 1 µM prostaglandin E2 (Tocris Bioscience, cat. 2296), […] hydrocortisone (Sigma-Aldrich, cat. H4001), and […] bovine insulin (Sigma-Aldrich, cat. I6634). The K86415-001-R-J1-PDC line was cultured in 6D media, which includes all 6C/Colon 1B media components minus the L-WRN conditioned media. The 485176-168-R4-J1-PDC was cultured in PANC media, which includes all 6C/Colon 1B media plus 100 ng/mL human FGF-10 (PeproTech, cat. 100-26), 500 nM SB-431542 (Selleckchem, cat. S1067), and 10 nM gastrin (Tocris Bioscience, cat. 3006). […]
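Also: spheroids exposed to agents for one week before readout.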
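For viability, T/C in this document: percent viability relative to DMSO vehicle control wells as 100%.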

IC50 (second compound 0.0316 µM): > 10 µM
IC50 (second compound 0.1 µM): > 10 µM
IC50 (second compound 0.316 µM): > 10 µM
IC50 (second compound 1 µM): > 10 µM
IC50 (second compound 3.16 µM): > 10 µM
IC50 (second compound 10 µM): > 10 µM
SMILES: NC1c2ccccc2OC12CCN(c1cnc3c(N4CCCc5ncccc54)n[nH]c3n1)CC2 (configuration not stated) + C#Cc1c(F)ccc2cc(O)cc(-c3ncc4c(N5CC6CCC(C5)N6)nc(OCC56CCCN5CC(F)C6)nc4c3F)c12
viability, T/C (second compound 0.0316 µM, first compound 0.0316 µM): 118%
viability, T/C (second compound 0.0316 µM, first compound 0.1 µM): 88.8%
viability, T/C (second compound 0.0316 µM, first compound 0.316 µM): 98.4%
viability, T/C (second compound 0.0316 µM, first compound 1 µM): 97.3%
viability, T/C (second compound 0.0316 µM, first compound 3.16 µM): 108%
viability, T/C (second compound 0.0316 µM, first compound 10 µM): 92.7%
viability, T/C (second compound 0.1 µM, first compound 0.0316 µM): 106%
viability, T/C (second compound 0.1 µM, first compound 0.1 µM): 98.1%
viability, T/C (second compound 0.1 µM, first compound 0.316 µM): 95.5%
viability, T/C (second compound 0.1 µM, first compound 1 µM): 108%
viability, T/C (second compound 0.1 µM, first compound 3.16 µM): 99.7%
viability, T/C (second compound 0.1 µM, first compound 10 µM): 109%
viability, T/C (second compound 0.316 µM, first compound 0.0316 µM): 100%
viability, T/C (second compound 0.316 µM, first compound 0.1 µM): 105%
viability, T/C (second compound 0.316 µM, first compound 0.316 µM): 95.5%
viability, T/C (second compound 0.316 µM, first compound 1 µM): 113%
viability, T/C (second compound 0.316 µM, first compound 3.16 µM): 108%
viability, T/C (second compound 0.316 µM, first compound 10 µM): 113%
viability, T/C (second compound 1 µM, first compound 0.0316 µM): 100%
viability, T/C (second compound 1 µM, first compound 0.1 µM): 103%
viability, T/C (second compound 1 µM, first compound 0.316 µM): 118%
viability, T/C (second compound 1 µM, first compound 1 µM): 109%
viability, T/C (second compound 1 µM, first compound 3.16 µM): 95.8%
viability, T/C (second compound 1 µM, first compound 10 µM): 118%
viability, T/C (second compound 3.16 µM, first compound 0.0316 µM): 101%
viability, T/C (second compound 3.16 µM, first compound 0.1 µM): 92.2%
viability, T/C (second compound 3.16 µM, first compound 0.316 µM): 109%
viability, T/C (second compound 3.16 µM, first compound 1 µM): 101%
viability, T/C (second compound 3.16 µM, first compound 3.16 µM): 91.1%
viability, T/C (second compound 3.16 µM, first compound 10 µM): 99.7%
viability, T/C (second compound 10 µM, first compound 0.0316 µM): 105%
viability, T/C (second compound 10 µM, first compound 0.1 µM): 90.1%
viability, T/C (second compound 10 µM, first compound 0.316 µM): 120%
viability, T/C (second compound 10 µM, first compound 1 µM): 98.8%
viability, T/C (second compound 10 µM, first compound 3.16 µM): 108%
viability, T/C (second compound 10 µM, first compound 10 µM): 115%
